We go through two compounds from PubChem BioAssay AID1053154 (Broad Institute, 2014).

This assay concerns HepG2, simvastatin, LDLR mRNA qPCR, 6 h. As to the kind of experiment: LDLR mRNA change in statin-treated cells, late-stage follow-up, mechanism study for Trib1 inducer project, cell-based, HepG2, RT-PCR, simvastatin, cherry-pick (AID 1053154). The note with it: active compounds read high.

For the compound `CN1C(=O)c2cc(NC(=O)c3ccc(C(F)(F)F)cc3)ccc2OC[C@@H]2O[C@H](CC(=O)NC3Cc4ccccc4C3)CC[C@@H]21`, the fold change was 2.
The result for `CN1C(=O)c2cc(NC(=O)c3ccc(C(F)(F)F)cc3)ccc2OC[C@@H]2O[C@@H](CC(=O)NC3Cc4ccccc4C3)CC[C@@H]21` reads 10.
